# In patent US20260092074A1, “Annelated Pyridines as Steroidogenesis Inhibitors, Preparation Method and Use Thereof” (Guangzhou Vinnocent Pharmaceutical Limited, priority 2022, published 2026):
# How the values were obtained:
# [1] = target: T1, human CYP11B1 (Homo sapiens, UniProt P15538); assay: Inhibition of hCYP11B1 in transfected V79 cells; assay type: cell-based; conditions: hamster V79 cells expressing human CYP11B1; substrate 11-deoxycortisol 200 nM
# T1 construct: expressed in transfected cells
# T1 sequence (P15538 25-503): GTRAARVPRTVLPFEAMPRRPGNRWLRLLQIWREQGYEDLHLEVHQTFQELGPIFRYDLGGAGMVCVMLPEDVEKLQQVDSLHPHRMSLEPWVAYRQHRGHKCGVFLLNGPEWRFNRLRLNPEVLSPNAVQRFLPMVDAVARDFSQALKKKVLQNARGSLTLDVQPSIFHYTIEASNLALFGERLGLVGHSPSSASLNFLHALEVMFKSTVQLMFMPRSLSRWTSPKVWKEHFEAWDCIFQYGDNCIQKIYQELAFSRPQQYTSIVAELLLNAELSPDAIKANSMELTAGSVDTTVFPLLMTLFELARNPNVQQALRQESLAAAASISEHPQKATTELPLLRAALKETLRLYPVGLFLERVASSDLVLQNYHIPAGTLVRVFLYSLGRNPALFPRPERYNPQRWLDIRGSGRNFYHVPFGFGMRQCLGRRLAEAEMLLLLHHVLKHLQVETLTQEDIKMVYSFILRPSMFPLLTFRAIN
# Description: (§1) Genes of human CYP11B1 and rat NADPH-P450 reductase were transfected into hamster V79 cells using a lentivirus vector, and stably-expressing cell lines were selected by taking advantages of the associated puromycin-resistance gene. Cultured cells were diluted and seeded in a 96-well plate with an amount of approximately 10,000 per well. After pre-incubation with suitable concentrations of the test compounds for 2 hours, 11-deoxycortisol of 200 nM was added as the substrate to initiate the catalytic reaction. After further incubation for 30 minutes, it was quenched with ethyl acetate. Subsequently, the substrate and product(s) were quantified using LC-MS/MS or HPLC at 260 nm, and the IC50 values were calculated according to inhibitory percentage.
# [2] = target: T2, human CYP11B2 (Homo sapiens, UniProt P19099); assay: Inhibition of hCYP11B2 in transfected V79 cells; assay type: cell-based; conditions: hamster V79 cells expressing human CYP11B2; substrate 11-deoxycorticosterone 200 nM
# T2 construct: expressed in transfected cells
# T2 sequence (P19099 25-503): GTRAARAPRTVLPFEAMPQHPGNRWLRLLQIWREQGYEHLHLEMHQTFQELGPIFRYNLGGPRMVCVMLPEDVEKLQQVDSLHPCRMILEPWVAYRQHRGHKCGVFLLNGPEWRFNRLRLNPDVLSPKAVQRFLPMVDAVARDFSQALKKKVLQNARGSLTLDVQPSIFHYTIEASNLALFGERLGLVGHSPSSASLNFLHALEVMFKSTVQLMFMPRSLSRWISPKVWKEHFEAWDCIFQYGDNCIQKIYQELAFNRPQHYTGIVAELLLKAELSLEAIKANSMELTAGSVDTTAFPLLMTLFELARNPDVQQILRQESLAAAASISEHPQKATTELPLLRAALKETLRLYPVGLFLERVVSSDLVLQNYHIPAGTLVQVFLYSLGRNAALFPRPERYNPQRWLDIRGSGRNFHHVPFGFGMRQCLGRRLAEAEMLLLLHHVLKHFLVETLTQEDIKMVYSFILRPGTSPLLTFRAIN
# Description: as §1, with “CYP11B2” for “CYP11B1”, “11-deoxycorticosterone” for “11-deoxycortisol”
IC50 [1] [nM],IC50 [2] [nM],Structure (SMILES)
1350,216,"O=C(c1ccccc1F)N1CCc2c(-c3cc4ccccc4s3)cncc21 [C61, (4-(Benzo[b]thiophen-2-yl)-2,3-dihydro-1H-pyrrolo[2,3-c]pyridin-1-yl)(2-fluorophenyl)methanone]"
512,30,"O=C(c1ccccc1F)N1CCc2c(-c3ccc4[nH]ccc4c3)cncc21 [C62, (4-(1H-indol-5-yl)-2,3-dihydro-1H-pyrrolo[2,3-c]pyridin-1-yl)(2-fluorophenyl)methanone]"
1820,113,"O=C(c1ccccc1F)N1CCc2c(-c3ccc4occc4c3)cncc21 [C63, (4-(Benzofuran-5-yl)-2,3-dihydro-1H-pyrrolo[2,3-c]pyridin-1-yl)(2-fluorophenyl)methanone]"
258,5.3,"Cc1ccccc1CC(=O)N1CCc2c(-c3ccc(C#N)cc3)cncc21 [C64, 4-(1-(2-(o-Tolyl)acetyl)-2,3-dihydro-1H-pyrrolo[2,3-c]pyridin-4-yl)benzonitrile]"
292,7.6,"N#Cc1ccc(-c2cncc3c2CCN3C(=O)Cc2ccccc2Br)cc1 [C65, 4-(1-(2-(2-Bromophenyl)acetyl)-2,3-dihydro-1H-pyrrolo[2,3-c]pyridin-4-yl)benzonitrile]"
92,0.9,"Cc1cccc(CC(=O)N2CCc3c(-c4ccc(C#N)cc4)cncc32)c1 [C66, 4-(1-(2-(m-Tolyl)acetyl)-2,3-dihydro-1H-pyrrolo[2,3-c]pyridin-4-yl)benzonitrile]"
277,6.5,"N#Cc1ccc(-c2cncc3c2CCN3C(=O)Cc2ccccc2F)cc1 [C67, 4-(1-(2-(2-Fluorophenyl)acetyl)-2,3-dihydro-1H-pyrrolo[2,3-c]pyridin-4-yl)benzonitrile]"
26,0.7,"COc1cccc(CC(=O)N2CCc3c(-c4ccc(C#N)cc4)cncc32)c1 [C68, 4-(1-(2-(3-Bethoxyphenyl)acetyl)-2,3-dihydro-1H-pyrrolo[2,3-c]pyridin-4-yl)benzonitrile]"
134,2.4,"N#Cc1ccc(-c2cncc3c2CCN3C(=O)Cc2ccc(F)cc2)cc1 [C69, 4-(1-(2-(4-Fluorophenyl)acetyl)-2,3-dihydro-1H-pyrrolo[2,3-c]pyridin-4-yl)benzonitrile]"
108,12,"N#Cc1ccc(-c2cncc3c2CCN3C(=O)Cc2ccccc2[N+](=O)[O-])cc1 [C70, 4-(1-(2-(2-Nitrophenyl)acetyl)-2,3-dihydro-1H-pyrrolo[2,3-c]pyridin-4-yl)benzonitrile]"
28,2,"N#Cc1ccc(-c2cncc3c2CCN3C(=O)Cc2cccc(Cl)c2)cc1 [C71, 4-(1-(2-(3-Chlorophenyl)acetyl)-2,3-dihydro-1H-pyrrolo[2,3-c]pyridin-4-yl)benzonitrile]"
51,6.8,"Cc1ccc(CC(=O)N2CCc3c(-c4ccc(C#N)cc4)cncc32)cc1 [C72, 4-(1-(2-(p-Tolyl)acetyl)-2,3-dihydro-1H-pyrrolo[2,3-c]pyridin-4-yl)benzonitrile]"
124,11,"N#Cc1ccc(-c2cncc3c2CCN3C(=O)Cc2ccc(Br)cc2)cc1 [C73, 4-(1-(2-(4-Bromophenyl)acetyl)-2,3-dihydro-1H-pyrrolo[2,3-c]pyridin-4-yl)benzonitrile]"
53,9,"N#Cc1ccc(-c2cncc3c2CCN3C(=O)Cc2cccc(C(F)(F)F)c2)cc1 [C74, 4-(1-(2-(3-(Trifluoromethyl)phenyl)acetyl)-2,3-dihydro-1H-pyrrolo[2,3-c]pyridin-4-yl)benzonitrile]"
111,35,"N#Cc1ccc(-c2cncc3c2CCN3C(=O)Cc2ccc(C(F)(F)F)cc2)cc1 [C75, 4-(1-(2-(4-(Trifluoromethyl)phenyl)acetyl)-2,3-dihydro-1H-pyrrolo[2,3-c]pyridin-4-yl)benzonitrile]"
62,9,"COc1ccc(CC(=O)N2CCc3c(-c4ccc(C#N)cc4)cncc32)cc1 [C76, 4-(1-(2-(4-Methoxyphenyl)acetyl)-2,3-dihydro-1H-pyrrolo[2,3-c]pyridin-4-yl)benzonitrile]"
376,8,"N#Cc1ccc(-c2cncc3c2CCN3C(=O)Cc2ccc(Cl)cc2)cc1 [C77, 4-(1-(2-(4-Chlorophenyl)acetyl)-2,3-dihydro-1H-pyrrolo[2,3-c]pyridin-4-yl)benzonitrile]"
2950,46,"COc1ccc(C(=O)N2CCc3c(-c4cc5cc(C#N)ccc5o4)cncc32)cc1 [C79, 2-(1-(4-Methoxybenzoyl)-2,3-dihydro-1H-pyrrolo[2,3-c]pyridin-4-yl)benzofuran-5-carbo nitrile]"
476,22,"O=C(C1CN(Cc2cccc(F)c2)C1)N1CCc2c(-c3cc4cc(Cl)ccc4[nH]3)cncc21 [C80, (4-(5-Chloro-1H-indol-2-yl)-2,3-dihydro-1H-pyrrolo[2,3-c]pyridin-1-yl)(1-(3-fluorobenzyl)azetidin-3-yl)methanone]"
438,15,"N#Cc1ccc2[nH]c(-c3cncc4c3CCN4C(=O)C3CN(Cc4cccc(F)c4)C3)cc2c1 [C81, 2-(1-(1-(3-Fluorobenzyl)azetidine-3-carbonyl)-2,3-dihydro-1H-pyrrolo[2,3-c]pyridin-4-yl)-1H-indole-5-carbonitrile]"
537,3,"COc1cccc(C(=O)N2CCc3c(C4=CCN(C#N)CC4)cncc32)c1 [C82, 4-(1-(3-Methoxybenzoyl)-2,3-dihydro-1H-pyrrolo[2,3-c]pyridin-4-yl)-3,6-dihydropyridine-1 (2H)-carbonitrile]"
672,6,"COc1cccc(C(=O)N2CCc3c(N4CCN(C#N)CC4)cncc32)c1 [C83, 4-(1-(3-Methoxybenzoyl)-2,3-dihydro-1H-pyrrolo[2,3-c]pyridin-4-yl)piperazine-1-carbonitrile]"
0.5,0.5,"N#Cc1ccc(-c2cncc3c2ccn3S(=O)(=O)c2ccc([N+](=O)[O-])cc2)cc1 [E1, 4-(1-((4-Nitrophenyl)sulfonyl)-1H-pyrrolo[2,3-c]pyridin-4-yl)benzonitrile]"
0.4,0.5,"Cc1ccc(S(=O)(=O)n2ccc3c(-c4ccc(C#N)cc4)cncc32)cc1 [E2, 4-(1-Tosyl-1H-pyrrolo[2,3-c]pyridin-4-yl)benzonitrile]"
0.3,0.4,"N#Cc1ccc(-c2cncc3c2ccn3S(=O)(=O)c2ccccc2)cc1 [E3, 4-(1-(Phenylsulfonyl)-1H-pyrrolo[2,3-c]pyridin-4-yl)benzonitrile]"
0.3,0.4,"Cc1cccc(S(=O)(=O)n2ccc3c(-c4ccc(C#N)cc4)cncc32)c1 [E4, 4-(1-(m-Tolylsulfonyl)-1H-pyrrolo[2,3-c]pyridin-4-yl)benzonitrile]"
0.6,0.3,"N#Cc1ccc(-c2cncc3c2ccn3S(=O)(=O)c2cccc(C(F)(F)F)c2)cc1 [E5, 4-(1-((3-(Trifluoromethyl)phenyl)sulfonyl)-1H-pyrrolo[2,3-c]pyridin-4-yl)benzonitrile]"
0.3,0.13,"N#Cc1ccc(-c2cncc3c2ccn3S(=O)(=O)c2ccc(F)cc2)cc1 [E6, 4-(1-((4-Fluorophenyl)sulfonyl)-1H-pyrrolo[2,3-c]pyridin-4-yl)benzonitrile]"
0.2,0.1,"N#Cc1ccc(-c2cncc3c2ccn3S(=O)(=O)c2ccc(C(F)(F)F)cc2)cc1 [E7, 4-(1-((4-(Trifluoromethyl)phenyl)sulfonyl)-1H-pyrrolo[2,3-c]pyridin-4-yl)benzonitrile]"
